Holding throughout (type): in vivo
Assay [1] has as its system myelin basic protein (MBP). Briefly: myelin gene expression in brain samples (QuantSeq 3′ mRNA-Seq), MBP. The following applies: mice receiving milk without 6′SL, fold change relative to control mice receiving milk with 6′SL; FIG. 4. The text has this:
(§1) Adult wild-type (WT) B6.129 and heterozygous (HZ) B6.129-St6gal1^tm2Jxm breeding pairs (four males and four females and three males and four females, respectively) were purchased from a commercial breeder (The Jackson Laboratory). Upon arrival, same-sex mice were housed in same-sex groups of 2-3 in type-1 polycarbonate cages (33.0×13.0×14.0 cm) equipped with sawdust bedding, an enrichment bag (Mucedola, Settimo Milanese, Italy), metal top and ad libitum water and food pellets (Mucedola, Settimo Milanese, Italy). Mice were maintained on a reversed 12-h-light-dark cycle (light on at 7:00 PM) in an air-conditioned room (temperature 21±1C and relative humidity 60±10%). Two weeks after arrival, breeding triads (one male, two females) were formed. After two weeks of mating, male mice were removed and females were housed individually in standard type-1 cages. […]
(§2) Total RNA is extracted using the Agencourt RNAdvance Tissue Kit (Beckman Coulter): Lysis was done in 450 μL. […] Elution volume 50 μL Quantification is performed using Quant It Ribogreen assay (Life Technologies) QC assessment is performed using Standard sensitivity RNA kit on Fragment Analyzer 96 (Agilent). […]
(§3) Library generation starts with oligodT priming containing the Illumina-specific Read 2 linker sequence. […] The random primer contains the Illumina-specific Read 1linker sequence. […]

Assay [2] deals with myelin-associated glycoprotein (MAG). Briefly: myelin gene expression in brain samples (QuantSeq 3′ mRNA-Seq), MAG. The following applies: mice receiving milk without 6′SL, fold change relative to control mice receiving milk with 6′SL; FIG. 4.
Description: as §1, §2, §3

Assay [3] deals with genes related to myelination; myelination and myelin sheath pathway. The experiment in a line: expression of myelination-related genes and KEGG pathways in brain samples. The following applies: mice receiving milk without 6′SL.
Description: Adult wild-type (WT) B6.129 and heterozygous (HZ) B6.129-St6gal1^tm2Jxm breeding pairs (four males and four females and three males and four females, respectively) were purchased from a commercial breeder (The Jackson Laboratory). Upon arrival, same-sex mice were housed in same-sex groups of 2-3 in type-1 polycarbonate cages (33.0×13.0×14.0 cm) equipped with sawdust bedding, an enrichment bag (Mucedola, Settimo Milanese, Italy), metal top and ad libitum water and food pellets (Mucedola, Settimo Milanese, Italy). Mice were maintained on a reversed 12-h-light-dark cycle (light on at 7:00 PM) in an air-conditioned room (temperature 21±1C and relative humidity 60±10%). Two weeks after arrival, breeding triads (one male, two females) were formed. After two weeks of mating, male mice were removed and females were housed individually in standard type-1 cages. Females were checked daily for delivery and the day in which they gave birth was designated as postnatal day (PND) 0. Apart from cage cleaning once a week, dams and their offspring were kept undisturbed until weaning (on PND 25). At weaning, male and female mice were separated and located in same-sex same-litter cages; additionally, male mice were marked through ear clipping and the ear tissue removed through this procedure was used for genotyping. Homozygous knock-out (KO) and WT mice were then used for the experiments.
Fourteen wild type (WT) and 14 St6Gal1 Homozygous (hereafter KO) female mice have been mated with seven WT and seven KO male mice respectively. Out of this batch, 10 WT and 10 KO dams gave birth to a viable offspring. […]
as §2, §3

The results in this text go back to patent publication US20220225627A1, “A NUTRITIONAL COMPOSITION FOR USE TO ENHANCE EXECUTIVE FUNCTION” (SOCIETE DES PRODUITS NESTLE S.A., priority 2019, published 2022).

Each structure is given as a SMILES string.

With `CC(=O)N[C@H]1[C@H]([C@H](O)[C@H](O)CO)O[C@@](OC[C@H]2O[C@@H](O[C@H]3[C@H](O)[C@@H](O)C(O)O[C@@H]3CO)[C@H](O)[C@@H](O)[C@H]2O)(C(=O)O)C[C@@H]1O` (stereo partly drawn) [6′SL, (6R)-5-Acetamido-3,5-dideoxy-6-[(1R,2R)-1,2,3-trihydroxypropyl]-β-L-threo-hex-2-ulopyranonosyl-(2->6)-β-D-galactopyranosyl-(1->4)-D-glucopyranose], the “reduction of the expression of myelin basic protein (MBP)” value in assay [1] is given as 50%. For the same compound, in assay [2], the “reduction of the expression of myelin-associated glycoprotein (MAG)” value stood at 50%. In addition, the “expression of multiple genes related to myelination” value was “neither observed” in assay [3] (adulthood, and hippocampus at both ages); “reduced” in assay [3] (prefrontal cortex during early life). In addition, the “KEGG myelination and myelin sheath pathway” value in assay [3] (only in prefrontal cortex during early life) is recorded as “down-regulated”.
